Measurements published in paper PMC8001898, “New Triterpene Glycosides from the Far Eastern Starfish Solaster pacificus and Their Biological Activity” (Biomolecules, 2021).
Read-outs that look alike come from different tables or passages of the source.

Assays:
[1] = system: melanoma RPMI-7951 cells; assay: Soft agar colony formation assay, RPMI-7951 cells; format: cell-based, human; details: for decrease of number of colonies of RPMI-7951: 1 µM, 14 days; for decrease of number of colonies of RPMI-7951 / colony growth of RPMI-7951 cells (in words): soft agar; for colony growth of RPMI-7951 cells (in words): concentrations of 0.5 µM and 1 µM; for colony formation of RPMI-7951 cells (in words): nontoxic concentration of 0.5 µM
Method: (§1) Compounds 1–6 were dissolved in sterile DMSO to prepare stock concentrations of 20 mM. Cells were treated with serially diluted compounds 1–6 (culture medium used as diluent) to give the intended final concentrations. The vehicle control is the cells treated with equivalent volume of DMSO (less than 0.5%) for all presented experiments.
(§2) Human cancer cells (2.4 × 10^4/mL) were seeded into 6-well plate and treated with compounds 1–6 (0.1, 0.5, and 1 µM) or cisplatin (3 µM) in 1 mL of 0.3% BME agar containing 10% FBS, 2 mM L-glutamine, and 25 µg/mL gentamicin. The cultures were maintained in a 37 °C, 5% CO2 incubator for 14 days, and the cell colonies were scored using a Motic microscope AE 20 (XiangAn, Xiamen, China) and ImageJ software bundled with 64-bit Java 1.8.0_112 (NIH, Bethesda, MD, USA).
(§3) Figure 3 Effect of compounds 1–6 on colony formation of human colorectal carcinoma HT-29, melanoma RPMI-7951, and breast cancer MDA-MB-231 cell lines. HT-29, RPMI-7951, and MDA-MB-231 cells (2.4 × 10^4 /mL) treated with/without investigated 1–6 (0.1, 0.5, and 1 µM) and subjected into a soft agar. The culture was maintained at 37 °C in a 5% CO2 atmosphere for 2 weeks. The colonies were counted under a microscope with the aid of the ImageJ software program (n = 6 for control and each compound, n—quantity of photos). The asterisks (* p < 0.05, ** p < 0.01, *** p < 0.001) indicate a significant decrease in colony formation in cells treated with compounds compared with the nontreated cells (control).

[2] = system: HT-29, RPMI-7951, and MDA-MB-231 cells; assay: Soft agar colony formation assay, statements on all types of cancer cells; format: cell-based, human; details: nontoxic concentrations
Method: as §1, §2
as §3, with “The asterisks (* p < 0.05, ** p < 0.01, *** p < 0.001) indicate a significant decrease in colony formation in cells treated with compounds compared with the nontreated cells (control).” left out

[3] = system: human embryonic kidney HEK 293 cells; assay: MTS cell viability assay, HEK 293 cells; format: cell-based
Method: (§4) Human embryonic kidney HEK 293 cells (ATCC® no. CRL-1573™), colorectal carcinoma HT-29 cells (ATCC® no. HTB-38™), melanoma RPMI-7951 cells (ATCC® no. HTB-66), and breast cancer MDA-MB-231 cells (ATCC® HTB-26™) were obtained from the American Type Culture Collection (Manassas, VA, USA). […] The cell cultures were maintained at 37 °C in humidified atmosphere containing 5% CO2. […] After three passages the cells were used for the experiments. […] Then samples were vacuum evaporated and dissolved in DMSO to their stock concentrations of 20 mM. Cells (1.0 × 10^4) were seeded in 96-well plates (Jet Biofil, Guangzhou, China) and cultured in 200 µL of complete culture medium for 24 h at 37 °C in 5% CO2 incubator.

[4] = system: breast cancer MDA-MB-231 cells; assay: Soft agar colony formation assay, MDA-MB-231 cells; format: cell-based, human; details: for decrease of number of colonies of MDA-MB-231: 1 µM, 14 days; for decrease of number of colonies of MDA-MB-231 / colony growth of MDA-MB-231 cells (in words): soft agar; for colony growth of MDA-MB-231 cells (in words): concentrations of 0.5 µM and 1 µM; for colony formation of MDA-MB-231 cells (in words): nontoxic concentration of 0.5 µM
Method: as §1, §2, §3

[5] = system: colorectal carcinoma HT-29 cells; assay: MTS cell viability assay, HT-29 cells; format: cell-based, human
Method: as §4

[6] = system: breast cancer MDA-MB-231 cells; assay: MTS cell viability assay, MDA-MB-231 cells; format: cell-based, human
Method: as §4

[7] = system: colorectal carcinoma HT-29 cells; assay: Soft agar colony formation assay, HT-29 cells; format: cell-based, human; details: for decrease of number of colonies of HT-29: 1 µM, 14 days; for decrease of number of colonies of HT-29 / colony growth of HT-29 cells (in words): soft agar; for colony growth of HT-29 cells (in words): concentrations of 0.5 µM and 1 µM; for colony formation of HT-29 cells (in words): nontoxic concentration of 0.5 µM
Method: as §1, §2, §3

[8] = system: HEK 293, HT-29, RPMI-7951, and MDA-MB-231 cells; assay: MTS cell viability assay, statements on all tested cell lines; format: cell-based, human; details: individual compounds, 24 h, concentrations range up to 40 µM
Method: Cells (1.0 × 10^4) were seeded in 96-well plates (Jet Biofil, Guangzhou, China) and cultured in 200 µL of complete culture medium for 24 h at 37 °C in 5% CO2 incubator. […] Cells were also treated by cisplatin (positive control) at 1, 5, 10, 50, 100 µM for 24 and 48 h. Subsequently, the cells were incubated with 15 µL MTS reagent for 3 h, and the absorbance of each well was measured at 490/630 nm using Power Wave XS microplate reader (BioTek, Wynusky, VT, USA).

[9] = system: melanoma RPMI-7951 cells; assay: MTS cell viability assay, RPMI-7951 cells; format: cell-based, human
Method: as §4

[10] = Homo sapiens, HEK293, 24 h, individual compounds, 24 h, MTS, read-out: Inhibiting Concentration, (IC50), HEK 293, a
[11] = Homo sapiens, HT-29, 24 h, individual compounds, 24 h, MTS, read-out: Inhibiting Concentration, (IC50), HT-29, a
[12] = Homo sapiens, MDA-MB-231, 24 h, individual compounds, 24 h, MTS, read-out: Inhibiting Concentration, (IC50), MDA-MB-231, a
[13] = Homo sapiens, RPMI-7951, 24 h, individual compounds, 24 h, MTS, read-out: Inhibiting Concentration, (IC50), RPMI-7951, a
[14] = Homo sapiens, HEK293, 24 h, read-out: Inhibiting Concentration, (IC50), HEK 293, a
[15] = Homo sapiens, HT-29, 24 h, read-out: Inhibiting Concentration, (IC50), HT-29, a
[16] = Homo sapiens, MDA-MB-231, 24 h, read-out: Inhibiting Concentration, (IC50), MDA-MB-231, a
[17] = Homo sapiens, RPMI-7951, 24 h, read-out: Inhibiting Concentration, (IC50), RPMI-7951, a

SMILES | decrease of number of colonies of RPMI-7951 [1] | IC50 [3, 10] | decrease of number of colonies of MDA-MB-231 [4] | IC50 [5, 11] | IC50 [6, 12] | decrease of number of colonies of HT-29 [7] | IC50 [9, 13] | IC50 [3, 14] | IC50 [5, 15] | IC50 [6, 16] | IC50 [9, 17] | colony growth of RPMI-7951 cells (in words) [1] | colony formation of RPMI-7951 cells (in words) [1] | colony growth of MDA-MB-231 cells (in words) [4] | colony formation of MDA-MB-231 cells (in words) [4] | colony growth of HT-29 cells (in words) [7] | colony formation of HT-29 cells (in words) [7] | further results
CO[C@@H]1[C@@H](O)[C@H](O[C@@H]2[C@@H](O)[C@H](O[C@H]3[C@H](O)[C@@H](O[C@@H]4OC[C@@H](O)[C@H](O)[C@H]4O)[C@H](O[C@H]4[C@H](O[C@H]5CC[C@]6(C)[C@@H]7CCC89C(=O)O[C@@](C)(/C=C/C=O)[C@H]8[C@@H](OC(C)=O)C[C@@]9(C)C7=CC[C@H]6C5(C)C)OC[C@@H](O)[C@@H]4O)O[C@@H]3C)O[C@H](CO)[C@H]2O)OC[C@H]1O (stereo partly drawn) [Compound 1, 3β-O-{3-O-methyl-β-D-xylopyranosyl-(1→3)-β-D-glucopyranosyl-(1→4)-[β-D-xylopyranosyl-(1→2)]-β-D-quinovopyranosyl-(1→2)-β-D-xylopyranosyl}-16β-acetoxy-25,26,27-trinorholosta-7,22-dien-24-al] | 27% | > 40 µM | 28% | > 40 µM | > 40 µM | 21% | > 40 µM | – | – | – | – | – | – | – | – | – | – | colony formation of all types of cancer cells (in words) [2]: slightly inhibited; cytotoxic activity against the tested cell lines (in words) [8]: nontoxic
C=C(C)[C@H]1[C@@H]2C[C@@]3(C)C4=CC[C@H]5C(C)(C)[C@@H](O[C@@H]6OC[C@@H](O)[C@H](O)[C@H]6O[C@@H]6O[C@H](C)[C@@H](O[C@@H]7O[C@H](CO)[C@@H](O)[C@H](O[C@@H]8OC[C@@H](O)[C@H](OC)[C@H]8O)[C@H]7O)[C@H](O)[C@H]6O)CC[C@]5(C)[C@@H]4CCC13C(=O)O2 [Compound 6, cucumarioside A10] | 45% | – | 40% | – | – | 28% | – | 6.3 ± 0.6 µM | 7.8 ± 0.7 µM | 5.5 ± 0.1 µM | 5.8 ± 2.6 µM | – | – | – | – | – | – | –
C=C(C)[C@H]1[C@@H]2C[C@@]3(C)C4=CC[C@H]5C(C)(C)[C@@H](O[C@@H]6OC[C@@H](O)[C@H](O)[C@H]6O[C@@H]6O[C@H](C)[C@@H](O[C@@H]7O[C@H](CO)[C@@H](O)[C@H](O[C@@H]8OC[C@@H](O)[C@H](OC)[C@H]8O)[C@H]7O)[C@H](O)[C@H]6O[C@@H]6OC[C@@H](O)[C@H](O)[C@H]6O)CC[C@]5(C)[C@@H]4CCC13C(=O)O2 [Compound 2, 3β-O-{3-O-methyl-β-D-xylopyranosyl-(1→3)-β-D-glucopyranosyl-(1→4)-[β-D-xylopyranosyl-(1→2)]-β-D-quinovopyranosyl-(1→2)-β-D-xylopyranosyl}-23,24,25,26,27-pentanorlanosta-7,20(22)-diene-18(16)-lactone] | 26% | > 20 µM | 25% | > 20 µM | > 20 µM | 22% | > 20 µM | – | – | – | – | – | – | – | – | – | – | IC50 ([3]; individual compounds, 24 h, MTS, read-out: Inhibiting Concentration, (IC50), HEK 293, a): 28.6 ± 2.1 µM; IC50 ([5]; individual compounds, 24 h, MTS, read-out: Inhibiting Concentration, (IC50), HT-29, a): 26.2 ± 2.5 µM; IC50 ([6]; individual compounds, 24 h, MTS, read-out: Inhibiting Concentration, (IC50), MDA-MB-231, a): 21.5 ± 0.5 µM; IC50 ([9]; individual compounds, 24 h, MTS, read-out: Inhibiting Concentration, (IC50), RPMI-7951, a): 20.4 ± 1.6 µM
CO[C@@H]1[C@@H](O)[C@H](O[C@@H]2[C@@H](O)[C@H](O[C@H]3[C@H](O)[C@@H](O[C@@H]4OC[C@@H](O)[C@H](O)[C@H]4O)[C@H](O[C@H]4[C@H](O[C@H]5CC[C@]6(C)[C@@H]7CCC89C(=O)O[C@@](C)(CCC=C(C)C)[C@H]8[C@@H](OC(C)=O)C[C@@]9(C)C7=CC[C@H]6C5(C)C)OC[C@@H](O)[C@@H]4O)O[C@@H]3C)O[C@H](CO)[C@H]2O)OC[C@H]1O (stereo partly drawn) [Compound 3, 3β-O-{3-O-methyl-β-D-xylopyranosyl-(1→3)-β-D-glucopyranosyl-(1→4)-[β-D-xylopyranosyl-(1→2)]-β-D-quinovopyranosyl-(1→2)-β-D-xylopyranosyl}-16β-acetoxyholosta-7,24-diene] | – | 6.7 ± 0.2 µM | – | 6.2 ± 0.3 µM | 6.4 ± 0.4 µM | – | 23.7 ± 0.4 µM | – | – | – | – | almost completely suppressed | almost completely suppressed | almost completely suppressed | almost completely suppressed | almost completely suppressed | almost completely suppressed | –
N.N.[Cl][Pt][Cl] [cisplatin, reference compound] | – | – | – | – | – | – | – | – | – | – | – | – | – | – | – | – | – | IC50 ([3]; after 48 h of treatment (data not shown), read-out: IC50 against HEK 293 cells): 64.6 µM; IC50 ([5]; after 48 h of treatment (data not shown), read-out: IC50 against HT-29 cells): 95.4 µM; IC50 ([6]; after 48 h of treatment (data not shown), read-out: IC50 against MDA-MB-231 cells): 7.8 µM; IC50 ([9]; after 48 h of treatment (data not shown), read-out: IC50 against RPMI-7951 cells): 48.4 µM
CO[C@@H]1[C@@H](O)[C@H](O[C@@H]2[C@@H](O)[C@H](O[C@H]3[C@H](O)[C@@H](O[C@@H]4OC[C@@H](O)[C@H](O)[C@H]4O)[C@H](O[C@H]4[C@H](O[C@H]5CC[C@]6(C)[C@@H]7CCC89C(=O)O[C@@](C)(/C=C\C=C(C)C)[C@H]8[C@@H](OC(C)=O)C[C@@]9(C)C7=CC[C@H]6C5(C)C)OC[C@@H](O)[C@@H]4O)O[C@@H]3C)O[C@H](CO)[C@H]2O)OC[C@H]1O (stereo partly shown) [Compound 4, cucumarioside C1] | – | – | – | – | – | – | – | 5.5 ± 0.3 µM | 5.3 ± 0.2 µM | 3.6 ± 0.2 µM | 5.8 ± 1.2 µM | almost completely suppressed | almost completely suppressed | almost completely suppressed | almost completely suppressed | almost completely suppressed | almost completely suppressed | –
CO[C@@H]1[C@@H](O)[C@H](O[C@@H]2[C@@H](O)[C@H](O[C@H]3[C@H](O)[C@@H](O[C@@H]4OC[C@@H](O)[C@H](O)[C@H]4O)[C@H](O[C@H]4[C@H](O[C@H]5CC[C@]6(C)[C@@H]7CCC89C(=O)O[C@@](C)(/C=C/C=C(C)C)[C@H]8[C@@H](OC(C)=O)C[C@@]9(C)C7=CC[C@H]6C5(C)C)OC[C@@H](O)[C@@H]4O)O[C@@H]3C)O[C@H](CO)[C@H]2O)OC[C@H]1O (stereo partly shown) [Compound 5, cucumarioside C2] | – | – | – | – | – | – | – | 7.9 ± 0.9 µM | 5.5 ± 0.6 µM | 4.4 ± 0.09 µM | 5.9 ± 0.9 µM | almost completely suppressed | almost completely suppressed | almost completely suppressed | almost completely suppressed | almost completely suppressed | almost completely suppressed | –
